Source: patent US20240122930A1, “INTEGRIN INHIBITORS AND USES THEREOF IN COMBINATION WITH OTHER AGENTS” (Pliant Therapeutics, Inc., priority 2022, published 2024)
“Also recorded” adds a separate entry of the source.

Columns and labels:
[1] = system: explanted human lung tissue from patients with idiopathic pulmonary fibrosis; assay: Fibrosis-related gene expression (nCounter Fibrosis Panel) in precision cut lung slices; assay type: cell-based
Text: Briefly, tissue samples from patients with IPF were acquired at the time of lung transplantation. […] Treated slices were lysed in mRNA-compatible buffer for gene expression analysis. For this study, the lysate from n=6 slices per treatment per lung were pooled for analysis using the nCounter Fibrosis Panel (Nanostring) on the nCounter Max analyzer (Nanostring). This commercially available panel of 770 genes includes genes related to initial tissue damage response, chronic inflammation, proliferation of pro-fibrotic cells, and tissue modification leading to fibrotic disease. Technical quality control and normalization of raw Nanostring mRNA count data was performed using an R framework developed by Bhattacharya et al. (Bhattacharya A. et al., Brief Bioinform. 2021 May 20; 22(3):bbaa163; herein incorporated by reference in its entirety). The R packages limma (see URL www.bioconductor.org/packages/release/bioc/html/limma.html, which is incorporated herein by reference in its entirety) and voom (Law, C.

αVβ6 = target: T1, αVβ6 (Homo sapiens, UniProt P06756+P18564); assay: αVβ6 target engagement by [18F]FP-R01-MG-F2 PET/CT in participants with IPF; assay type: in vivo; set-up: Vt / Vs (Vt − VND): unit not given here; conditions: for Vs (Vt − VND): VND = 0.66
T1 construct: clinical trial evaluating αVβ6 receptor occupancy in the lungs; from tissue; host or cells: lungs of human participants with IPF (in vivo PET/CT)
Description: (§1) The aim of this Example is to assess target engagement of the disclosed compounds to αVβ6 in human participants with IPF using [^18F]FP-R01-MG-F2 PET/computerized tomography (CT) imaging.
(§2) This Example was conducted as an open-label, single-dose (60 mg, 120 mg, 240 mg or 320 mg) clinical trial evaluating αVβ6 receptor occupancy in the lungs, safety, and pharmacokinetics of Compound #5 in subjects with IPF. To date, 4 participants have completed the study. Each of these 4 participants was undergoing a pre-existing course of therapy using one of the SoC (Standard of Care) compounds, nintedanib. These participants continued their pre-existing nintedanib therapy throughout this study. Knottin tracer uptake kinetics were compared pre- and post-dose of the disclosed compound, as measured by standardized uptake values (SUVs) and parameters estimated from kinetic modeling in regions-of-interest on dynamic [^18F]FP-R01-MG-F2 PET/CT scans. […] Receptor occupancy was estimated from the output of the two-compartment model (VT, the […]) using standard equations and fitting algorithms, and corrections for VND (non-displaceable tracer binding). For example, in FIG. 10, the data points, shown as circles, are modeled by the following formula: […]
(§3) Five subjects with IPF were enrolled: Subject A received a single dose of 60 mg of the disclosed compound followed by a post-dose scan. Subject B received two doses of the disclosed compound separated by two weeks, 120 mg and 240 mg, each followed by a post-dose scan. Subject C received two doses of the disclosed compound separated by two weeks, 240 mg and 320 mg, each followed by a post-dose scan. Subject D received a single dose of 320 mg of the disclosed compound followed by a post-dose scan.

[2] = as above; assay type: in vivo, human; set-up: Vt / Vs (Vt − VND): unit not given here; conditions: human, plasma; Subject C, 320 mg; read-out: Conc (Unbound Plasma Concentration)
Description: as §1, §2, §3

[3] = system: participants with idiopathic pulmonary fibrosis (IPF); assay: Phase 2a clinical trial: High Resolution CT-based Quantitative Lung Fibrosis (QLF) imaging; assay type: in vivo, human; conditions: for Mean Percent Change in QLF Extent From Baseline to Week 12 (Mean Difference) / Median change in QLF Extent From Baseline to Week 12 / QLF extent change Baseline to Week 12: Improvers < −2%, % / QLF extent change Baseline to Week 12: Stable [−2, 2%), % / QLF extent change Baseline to Week 12: Worse > 2%, %: CT Protocol Population
Description: Study Design and Objectives. […] At Day 1, baseline values were collected.
[…]-IPF study design and objectives.
QLF was measured by computed tomography. […] QLF refers to quantitative lung fibrosis. […] Per CT protocol population: Participants with both baseline and post baseline high resolution computed tomography (HRCT) scans meet evaluability criteria per Imaging Charter.

[4] = system: Type I Collagen gene Col1a1 expression; assay: Precision cut lung slices, acute bleomycin exposure, Col1a1 expression; assay type: cell-based, mice (C57BL/6); conditions: acute bleomycin PCLS, 3 days culture; integrin inhibitors at IC50 for TGF-beta activation, pan-αV and ALK5 inhibitors at 10× IC50
Description: Mice (C57BL/6) were administered 3 U/kg of bleomycin (Teva Pharmaceuticals; North Wales, PA) on day 0 via oropharyngeal aspiration while under anesthesia. On day 14, precision cut lung slices were obtained. Following euthanization, 2% low gelling temp agarose was injected into the mouse lungs via the trachea. […] The lobes were then subjected to precision slicing to obtain samples for culture using a microtome (Compresstome VF-300-OZ, Precisionary; Greenville, NC). Individual slices were distributed in a multiwell culture plate and cultured for 3 days under control (DMSO) and test compound conditions. The viability of the slices over the course of culturing was confirmed by WST-1 assay of mitochondrial activity.

[5] = system: participants with idiopathic pulmonary fibrosis (IPF); assay: Phase 2a clinical trial: quantitative ground glass (QGG) score on HRCT; assay type: in vivo, human; conditions: for QGG score, Change to Week 12, LS Mean (SE): placebo 0.0 (0.63); for QGG score, Change to Week 24, LS Mean (SE): placebo −0.7 (1.66)
[6] = FIG. 24 Venn region E: only altered by Compound 5 in the absence of pirfenidone
[7] = gene expression, combination vs individual treatment
[8] = single treatment, adj. p-value <0.05
[9] = % target engagement fit of FIG. 10

T1 sequence (P06756 31-1048): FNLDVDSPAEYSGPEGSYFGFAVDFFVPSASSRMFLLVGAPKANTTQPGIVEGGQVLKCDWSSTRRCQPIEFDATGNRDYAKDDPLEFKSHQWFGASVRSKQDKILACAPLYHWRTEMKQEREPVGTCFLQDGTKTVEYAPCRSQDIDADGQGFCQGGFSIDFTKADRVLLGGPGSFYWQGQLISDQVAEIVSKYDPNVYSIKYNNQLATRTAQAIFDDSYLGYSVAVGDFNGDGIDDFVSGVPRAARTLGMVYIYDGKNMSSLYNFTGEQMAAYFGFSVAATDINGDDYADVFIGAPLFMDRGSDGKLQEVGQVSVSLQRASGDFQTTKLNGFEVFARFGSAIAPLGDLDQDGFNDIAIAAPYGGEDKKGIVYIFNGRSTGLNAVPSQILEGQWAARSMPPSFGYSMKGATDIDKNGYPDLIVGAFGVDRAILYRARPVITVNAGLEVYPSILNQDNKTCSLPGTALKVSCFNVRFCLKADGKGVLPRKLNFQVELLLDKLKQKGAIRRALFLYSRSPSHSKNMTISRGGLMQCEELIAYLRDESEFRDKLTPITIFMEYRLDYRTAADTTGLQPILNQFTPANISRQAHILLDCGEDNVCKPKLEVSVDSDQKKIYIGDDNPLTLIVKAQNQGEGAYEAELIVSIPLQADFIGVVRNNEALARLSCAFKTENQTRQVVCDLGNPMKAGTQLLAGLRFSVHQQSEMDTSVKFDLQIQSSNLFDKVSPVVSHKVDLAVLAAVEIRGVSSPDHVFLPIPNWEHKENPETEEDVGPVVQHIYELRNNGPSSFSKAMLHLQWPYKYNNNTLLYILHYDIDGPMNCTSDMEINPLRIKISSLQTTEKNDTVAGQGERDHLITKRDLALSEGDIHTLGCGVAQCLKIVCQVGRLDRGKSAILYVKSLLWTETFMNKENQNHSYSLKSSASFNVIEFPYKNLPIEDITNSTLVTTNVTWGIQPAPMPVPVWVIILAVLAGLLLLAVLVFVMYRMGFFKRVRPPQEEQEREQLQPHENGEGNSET
T1 sequence (P18564 22-788): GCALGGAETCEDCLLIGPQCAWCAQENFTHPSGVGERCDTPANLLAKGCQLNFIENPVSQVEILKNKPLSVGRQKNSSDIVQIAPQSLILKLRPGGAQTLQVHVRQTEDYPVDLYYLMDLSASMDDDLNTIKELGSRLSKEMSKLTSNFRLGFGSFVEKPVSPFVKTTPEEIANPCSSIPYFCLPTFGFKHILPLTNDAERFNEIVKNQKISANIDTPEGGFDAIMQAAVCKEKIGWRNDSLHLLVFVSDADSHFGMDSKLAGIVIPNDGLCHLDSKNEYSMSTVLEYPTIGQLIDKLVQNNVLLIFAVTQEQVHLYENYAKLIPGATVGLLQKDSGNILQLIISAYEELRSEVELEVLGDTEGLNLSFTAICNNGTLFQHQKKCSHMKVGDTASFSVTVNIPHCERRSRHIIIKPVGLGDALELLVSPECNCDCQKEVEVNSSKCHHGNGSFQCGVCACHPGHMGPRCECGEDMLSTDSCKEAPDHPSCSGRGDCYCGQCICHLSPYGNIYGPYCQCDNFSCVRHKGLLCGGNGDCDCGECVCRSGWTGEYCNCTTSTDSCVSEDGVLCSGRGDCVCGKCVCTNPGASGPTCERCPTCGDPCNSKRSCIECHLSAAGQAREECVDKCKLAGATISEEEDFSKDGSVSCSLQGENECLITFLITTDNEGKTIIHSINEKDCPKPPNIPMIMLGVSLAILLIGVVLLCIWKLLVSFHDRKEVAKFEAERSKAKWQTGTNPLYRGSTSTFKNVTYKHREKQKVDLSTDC

In the case of COCCN(CCCCc1ccc2c(n1)NCCC2)CC[C@H](Nc1ncnc2ccccc12)C(=O)O [Compound 5, (S)-4-((2-methoxyethyl) (4-(5,6,7,8-tetrahydro-1,8-naphthyridin-2-yl)butyl)amino)-2-(quinazolin-4-ylamino) butanoic acid], the “Genes Down-regulated with Compound 5 and Pirfenidone Alone or in Combination, region E” value [1, 6] is reported as “COL3A1 and COL6A3 and LOXL1 and MARCO and MMP8 and PLPP4”, the “Genes Up-regulated with Compound 5 and Pirfenidone Alone or in Combination, region E” value [1, 6] is reported as “APOA2 and CIITA and IFI6 and NOS1 and OAS1 and TTN” and the “Genes Down-regulated with Compound 5 and Pirfenidone Alone or in Combination, region F” value ([1]; FIG. 24 Venn region F: altered by Compound 5 or pirfenidone alone, but not by Compound 5 in combination with pirfenidone) is reported as “CXCR4; also recorded: PECAM1”. For the same molecule, the “Genes up-regulated, Venn region E (FIG. 24)” value ([1]; IPF precision cut lung slices, 7 days, only altered by Compound 5 in the absence of nintedanib) was “APOA2 and CCL13 and CIITA and IFI6”, the “% Reduction APOC2” value [1, 7] was −1.20% and the “% Reduction CDH2” value [1, 7] was 23.87%. For the same molecule, the “% Reduction COL1A1” value [1, 7] was 38.78%, the “% Reduction THBS2” value [1, 7] was 31.47% and the “logFC ALDH7A1” value [1, 8] was 0.57. For the same molecule, the “logFC OAS1” value [1, 8] was 0.6104, the “decrease of the volume of distribution of the knottin radiotracer in the lungs” value (αVβ6; 60 mg dose) was “approximately 50%” and the “decrease of the volume of distribution of the knottin radiotracer in the lungs” value (αVβ6; 240 and 320 mg doses) was “greater than 95%”. The best-fit bottom value (αVβ6; [9]) was 0, the best-fit hillslope value (αVβ6; [9]) was 1.11 and the best-fit top value (αVβ6; [9]) was 87.4. For the same molecule, the “Conc (Unbound Plasma Concentration)” value (αVβ6; Subject A, 60 mg) was 3.66 nM, the Vt (αVβ6; Subject A, post-dose 60 mg) was 1.84 and the “Vs (Vt − VND)” value (αVβ6; Subject A, post-dose 60 mg) was 1.18. The “Conc (Unbound Plasma Concentration)” value (αVβ6; Subject B, 120 mg) was 10 nM, the “%DeltaVt” value (αVβ6; Subject B, 120 mg, corrected for non-displaceable binding) was 59.76% and the “Conc (Unbound Plasma Concentration)” value (αVβ6; Subject B, 240 mg) was 58.3 nM. The Vt (αVβ6; Subject B, post-dose 120 mg) was 1.65, the “Vs (Vt − VND)” value (αVβ6; Subject B, post-dose 120 mg) was 0.99 and the Vt (αVβ6; Subject B, post-dose 240 mg) was 0.72. For the same molecule, the “Vs (Vt − VND)” value (αVβ6; Subject B, post-dose 240 mg) was 0.06, the “Conc (Unbound Plasma Concentration)” value (αVβ6; Subject C, 240 mg) was 103 nM and the Vt (αVβ6; Subject C, post-dose 240 mg) was 0.98. For the same molecule, the “Vs (Vt − VND)” value (αVβ6; Subject C, post-dose 240 mg) was 0.32, the Vt (αVβ6; Subject C, post-dose 320 mg) was 0.85 and the “Vs (Vt − VND)” value (αVβ6; Subject C, post-dose 320 mg) was 0.19. The “Conc (Unbound Plasma Concentration)” value (αVβ6; Subject D, 320 mg) was 33.6 nM, the Vt (αVβ6; Subject D, post-dose 320 mg) was 0.75 and the “Vs (Vt − VND)” value (αVβ6; Subject D, post-dose 320 mg) was 0.09. For the same molecule, the Receptor occupancy (αVβ6; at pharmacologically relevant plasma concentrations) was greater than 95%, the “concentration at which the exposure response saturates” value (αVβ6; drug exposure at 4 hours, approaching 100% receptor occupancy) was “about 100 nM” and the EC50 (αVβ6; unbound plasma concentration vs % target engagement, 4-parameter non-linear regression (FIG. 10), read-out: best-fit EC50) was 2.96 nM. The concentration at 4 h [2] was 98.5 nM, the “Mean Percent Change in QLF Extent From Baseline to Week 12 (Mean Difference)” value (shortened to “Mean Percent Change … (Mean Difference)”) ([3]; 40 mg (N = 15)) was 3.15% and the “Median change in QLF Extent From Baseline to Week 12” value (shortened to “Median change”) ([3]; 40 mg (N = 15)) was 1.50%. The “QLF extent change Baseline to Week 12: Improvers < −2%, %” value ([3]; 40 mg (N = 15)) was “(6.6%)”, the “QLF extent change Baseline to Week 12: Stable [−2, 2%), %” value ([3]; 40 mg (N = 15)) was “(46.7%)” and the “QLF extent change Baseline to Week 12: Worse > 2%, %” value ([3]; 40 mg (N = 15)) was “(46.7%)”. The “Mean Percent Change … (Mean Difference)” value ([3]; 80 mg (N = 18)) was 0.7%, the “Median change” value ([3]; 80 mg (N = 18)) was −0.45% and the “QLF extent change Baseline to Week 12: Improvers < −2%, %” value ([3]; 80 mg (N = 18)) was “(11.1%)”. The “QLF extent change Baseline to Week 12: Stable [−2, 2%), %” value ([3]; 80 mg (N = 18)) was “(72.2%)”, the “QLF extent change Baseline to Week 12: Worse > 2%, %” value ([3]; 80 mg (N = 18)) was “(16.7%)” and the “Mean Percent Change … (Mean Difference)” value ([3]; 160 mg (N = 14)) was 0%. For the same molecule, the “Median change” value ([3]; 160 mg (N = 14)) was −0.10%, the “QLF extent change Baseline to Week 12: Improvers < −2%, %” value ([3]; 160 mg (N = 14)) was “(28.6%)” and the “QLF extent change Baseline to Week 12: Stable [−2, 2%), %” value ([3]; 160 mg (N = 14)) was “(50.0%)”. The “QLF extent change Baseline to Week 12: Worse > 2%, %” value ([3]; 160 mg (N = 14)) was “(21.4%)”, the “Progression based on mean change from baseline in QLF” value ([3]; 160 mg and 320 mg groups, Week 12) was “No or limited progression” and the “Likelihood of stabilization or improvement of fibrosis (QLF) relative to placebo at Week 24” value ([3]; 320 mg) was “twice as likely”. The “Mean (SD) Change in QLF Extent from Baseline at Week 12” value ([3]; 320 mg (n=16), Per CT protocol population, placebo (n=25) 1.46%) was 0.2%, the “Patients with stable or improved QLF from baseline at week 24” value ([3]; 320 mg, per CT protocol population, stable −2% to 2%, improved <−2%, placebo 33%) was 71% and the “Patients with worsened QLF from baseline at week 24” value ([3]; 320 mg, per CT protocol population, worsened >2%, placebo 67%) was 29%. For the same molecule, the “Antifibrotic effect on QLF imaging” value ([3]; 40 to 320 mg, Week 12) was “Dose-dependent antifibrotic effect”, the “Type I Collagen gene Col1a1 expression, normalized to DMSO control slices” value [4] was “decreased Type I Collagen gene Col1a1 expression substantially” and the “QGG score, Change to Week 12, LS Mean Diff (SE) vs. Placebo” value ([5]; 40 mg (n 15)) was 1.3 (1.04). For the same molecule, the “QGG score, Change to Week 12, LS Mean (SE)” value ([5]; 40 mg (n 15)) was 1.3 (0.82), the “QGG score, Change to Week 12, LS Mean Diff (SE) vs. Placebo” value ([5]; 80 mg (n 18)) was −1.2 (0.98) and the “QGG score, Change to Week 12, LS Mean (SE)” value ([5]; 80 mg (n 18)) was −1.2 (0.74). For the same molecule, the “QGG score, Change to Week 12, LS Mean Diff (SE) vs. Placebo” value ([5]; 160 mg (n 14)) was −0.1 (1.05), the “QGG score, Change to Week 12, LS Mean (SE)” value ([5]; 160 mg (n 14)) was 0.0 (0.84) and the “QGG score, Change to Week 24, LS Mean Diff (SE) vs. Placebo” value ([5]; 320 mg (n 14)) was −1.2 (1.53). The “QGG score, Change to Week 24, LS Mean (SE)” value ([5]; 320 mg (n 14)) was −1.8 (1.31), the “QGG score, Change to Week 12, LS Mean Diff (SE) vs. Placebo” value ([5]; 320 mg (n 16)) was −0.2 (1.01) and the “QGG score, Change to Week 12, LS Mean (SE)” value ([5]; 320 mg (n 16)) was −0.2 (0.79). The “QGG score, Change to Week 24, LS Mean Diff (SE) vs. Placebo” value ([5]; All Compound 5 (n 14)) was −1.2 (1.53), the “QGG score, Change to Week 24, LS Mean (SE)” value ([5]; All Compound 5 (n 14)) was −1.8 (1.31) and the “QGG score, Change to Week 12, LS Mean Diff (SE) vs. Placebo” value ([5]; All Compound 5 (n 63)) was −0.1 (0.76). For the same molecule, the “QGG score, Change to Week 12, LS Mean (SE)” value ([5]; All Compound 5 (n 63)) was −0.1 (0.40) and the “Ground glass scores over a 12-24 week period after treatment” value ([5]; instant study) was “decreased or remained stable”.
